Where “and” joins values, the source holds several entries; their conditions need not be identical. Equal entries are not always repeated.
Assay: wn = mass fraction of the nth substance listed
Conditions: Liquid, Pycnometric method, w2 = 0.4981

FC(F)C(F)(F)F [pentafluoroethane] + FCF
Conditions | mass density
277.15 K, 11982 kPa | 1205.5 kg/m3
278.15 K, 12826 kPa | 1205.4 kg/m3
279.15 K, 13669 kPa | 1205.2 kg/m3
280.15 K, 14512 kPa | 1205.1 kg/m3
281.15 K, 15355 kPa | 1204.9 kg/m3
282.15 K, 16198 kPa | 1204.8 kg/m3
283.15 K, 17040 kPa | 1204.6 kg/m3
284.15 K, 17881 kPa | 1204.5 kg/m3
285.15 K, 18722 kPa | 1204.3 kg/m3
286.15 K, 19563 kPa | 1204.2 kg/m3
287.15 K, 20403 kPa | 1204 kg/m3
288.15 K, 21239 kPa | 1203.8 kg/m3
289.15 K, 22077 kPa | 1203.7 kg/m3
291.15 K, 23750 kPa | 1203.4 kg/m3
292.15 K, 24585 kPa | 1203.2 kg/m3
293.15 K, 25420 kPa | 1203 kg/m3
294.15 K, 26254 kPa | 1202.9 kg/m3
295.15 K, 27085 kPa | 1202.7 kg/m3
296.15 K, 27917 kPa | 1202.5 kg/m3
297.15 K, 8118 kPa | 1113.5 kg/m3
297.15 K, 28747 kPa | 1202.3 kg/m3
298.15 K, 29575 kPa | 1202.2 kg/m3
299.15 K, 9422 kPa | 1113.3 kg/m3
300.15 K, 10072 kPa | 1113.2 kg/m3
300.15 K, 10089 kPa | 1113.1 kg/m3
301.15 K, 10723 kPa | 1113.1 kg/m3
301.15 K, 10737 kPa | 1113 kg/m3
302.15 K, 11374 kPa | 1113 kg/m3
302.15 K, 11385 kPa | 1112.9 kg/m3
303.15 K, 12024 kPa | 1112.9 kg/m3
303.15 K, 12032 kPa | 1112.8 kg/m3
304.15 K, 12672 kPa | 1112.8 kg/m3
304.15 K, 12680 kPa | 1112.7 kg/m3
305.15 K, 13320 kPa | 1112.6 kg/m3
305.15 K, 13327 kPa | 1112.5 kg/m3
306.15 K, 13970 kPa | 1112.5 kg/m3
306.15 K, 13973 kPa | 1112.4 kg/m3
307.15 K, 14620 kPa | 1112.4 kg/m3 and 1112.3 kg/m3
308.15 K, 15268 kPa | 1112.3 kg/m3 and 1112.2 kg/m3
309.15 K, 15915 kPa | 1112.1 kg/m3
309.15 K, 15917 kPa | 1112.1 kg/m3
310.15 K, 16562 kPa | 1111.9 kg/m3
310.15 K, 16564 kPa | 1112 kg/m3
311.15 K, 17208 kPa | 1111.8 kg/m3
311.15 K, 17212 kPa | 1111.9 kg/m3
312.15 K, 17853 kPa | 1111.7 kg/m3
312.15 K, 17859 kPa | 1111.7 kg/m3
313.15 K, 18499 kPa | 1111.6 kg/m3
313.15 K, 18506 kPa | 1111.6 kg/m3
314.15 K, 19144 kPa | 1111.4 kg/m3
314.15 K, 19153 kPa | 1111.5 kg/m3
315.15 K, 19788 kPa | 1111.3 kg/m3
315.15 K, 19798 kPa | 1111.3 kg/m3
316.15 K, 20432 kPa | 1111.2 kg/m3
316.15 K, 20443 kPa | 1111.2 kg/m3
317.15 K, 21075 kPa | 1111 kg/m3
317.15 K, 21088 kPa | 1111.1 kg/m3
318.15 K, 21719 kPa | 1110.9 kg/m3
318.15 K, 21733 kPa | 1110.9 kg/m3
319.15 K, 22362 kPa | 1110.7 kg/m3
319.15 K, 22377 kPa | 1110.8 kg/m3
320.15 K, 23005 kPa | 1110.6 kg/m3
320.15 K, 23021 kPa | 1110.7 kg/m3
321.15 K, 23648 kPa | 1110.5 kg/m3
321.15 K, 23665 kPa | 1110.5 kg/m3
322.15 K, 24289 kPa | 1110.3 kg/m3
322.15 K, 24307 kPa | 1110.4 kg/m3
323.15 K, 24930 kPa | 1110.2 kg/m3
323.15 K, 24949 kPa | 1110.3 kg/m3
324.15 K, 25571 kPa | 1110 kg/m3
324.15 K, 25590 kPa | 1110.1 kg/m3
325.15 K, 26210 kPa | 1109.9 kg/m3
325.15 K, 26231 kPa | 1110 kg/m3
326.15 K, 26850 kPa | 1109.8 kg/m3
326.15 K, 26871 kPa | 1109.8 kg/m3
327.15 K, 27488 kPa | 1109.6 kg/m3
327.15 K, 27511 kPa | 1109.7 kg/m3
328.15 K, 28127 kPa | 1109.4 kg/m3
328.15 K, 28150 kPa | 1109.5 kg/m3
329.15 K, 5865 kPa | 921.2 kg/m3
329.15 K, 5904 kPa | 921.4 kg/m3
329.15 K, 28764 kPa | 1109.3 kg/m3
329.15 K, 28790 kPa | 1109.4 kg/m3
330.15 K, 6231 kPa | 921.1 kg/m3
330.15 K, 6255 kPa | 921.2 kg/m3
330.15 K, 6269 kPa | 921.3 kg/m3
330.15 K, 29402 kPa | 1109.1 kg/m3
330.15 K, 29426 kPa | 1109.2 kg/m3
331.15 K, 6598 kPa | 921 kg/m3
331.15 K, 6620 kPa | 921.1 kg/m3
331.15 K, 6635 kPa | 921.2 kg/m3
331.15 K, 30065 kPa | 1109.1 kg/m3
332.15 K, 6965 kPa | 921 kg/m3
332.15 K, 6987 kPa | 921 kg/m3
332.15 K, 7002 kPa | 921.1 kg/m3
333.15 K, 7333 kPa | 920.9 kg/m3
333.15 K, 7355 kPa | 921 kg/m3
333.15 K, 7370 kPa | 921.1 kg/m3
334.15 K, 7700 kPa | 920.8 kg/m3
334.15 K, 7723 kPa | 920.9 kg/m3
334.15 K, 7736 kPa | 921 kg/m3
335.15 K, 8069 kPa | 920.7 kg/m3
335.15 K, 8090 kPa | 920.8 kg/m3
335.15 K, 8104 kPa | 920.9 kg/m3
336.15 K, 8438 kPa | 920.7 kg/m3
336.15 K, 8457 kPa | 920.7 kg/m3
336.15 K, 8472 kPa | 920.8 kg/m3
337.15 K, 8807 kPa | 920.6 kg/m3
337.15 K, 8826 kPa | 920.6 kg/m3
337.15 K, 8840 kPa | 920.8 kg/m3
338.15 K, 9176 kPa | 920.5 kg/m3
338.15 K, 9194 kPa | 920.5 kg/m3
338.15 K, 9209 kPa | 920.7 kg/m3
339.15 K, 9546 kPa | 920.4 kg/m3
339.15 K, 9563 kPa | 920.4 kg/m3
339.15 K, 9579 kPa | 920.6 kg/m3
340.15 K, 9916 kPa | 920.3 kg/m3
340.15 K, 9933 kPa | 920.3 kg/m3
340.15 K, 9949 kPa | 920.5 kg/m3
341.15 K, 10286 kPa | 920.3 kg/m3
341.15 K, 10302 kPa | 920.2 kg/m3
341.15 K, 10320 kPa | 920.4 kg/m3
342.15 K, 10657 kPa | 920.2 kg/m3
342.15 K, 10672 kPa | 920.1 kg/m3
342.15 K, 10691 kPa | 920.4 kg/m3
343.15 K, 11028 kPa | 920.1 kg/m3
343.15 K, 11043 kPa | 920.1 kg/m3
343.15 K, 11061 kPa | 920.3 kg/m3
344.15 K, 11399 kPa | 920.1 kg/m3
344.15 K, 11413 kPa | 920 kg/m3
344.15 K, 11431 kPa | 920.2 kg/m3
345.15 K, 6187 kPa | 774 kg/m3
345.15 K, 11770 kPa | 920 kg/m3
345.15 K, 11784 kPa | 919.9 kg/m3
345.15 K, 11802 kPa | 920.1 kg/m3
346.15 K, 6420 kPa | 774.1 kg/m3
346.15 K, 12143 kPa | 919.9 kg/m3
346.15 K, 12155 kPa | 919.8 kg/m3
346.15 K, 12174 kPa | 920.1 kg/m3
347.15 K, 6655 kPa | 774 kg/m3
347.15 K, 6657 kPa | 773.9 kg/m3
347.15 K, 12515 kPa | 919.8 kg/m3
347.15 K, 12527 kPa | 919.7 kg/m3
347.15 K, 12547 kPa | 920 kg/m3
348.15 K, 6890 kPa | 773.9 kg/m3
348.15 K, 6893 kPa | 773.9 kg/m3
348.15 K, 12887 kPa | 919.8 kg/m3
348.15 K, 12899 kPa | 919.6 kg/m3
348.15 K, 12919 kPa | 919.9 kg/m3
349.15 K, 7127 kPa | 773.9 kg/m3
349.15 K, 7130 kPa | 773.8 kg/m3
349.15 K, 13259 kPa | 919.7 kg/m3
349.15 K, 13271 kPa | 919.6 kg/m3
349.15 K, 13292 kPa | 919.8 kg/m3
350.15 K, 7364 kPa | 773.8 kg/m3
350.15 K, 7368 kPa | 773.8 kg/m3
350.15 K, 13631 kPa | 919.6 kg/m3
350.15 K, 13643 kPa | 919.5 kg/m3
350.15 K, 13664 kPa | 919.7 kg/m3
351.15 K, 7602 kPa | 773.8 kg/m3
351.15 K, 7606 kPa | 773.7 kg/m3
351.15 K, 14004 kPa | 919.5 kg/m3
351.15 K, 14015 kPa | 919.4 kg/m3
351.15 K, 14036 kPa | 919.6 kg/m3
352.15 K, 7841 kPa | 773.7 kg/m3
352.15 K, 7845 kPa | 773.6 kg/m3
352.15 K, 14377 kPa | 919.4 kg/m3
352.15 K, 14387 kPa | 919.3 kg/m3
352.15 K, 14409 kPa | 919.6 kg/m3
353.15 K, 8080 kPa | 773.7 kg/m3
353.15 K, 8084 kPa | 773.6 kg/m3
353.15 K, 14750 kPa | 919.3 kg/m3
353.15 K, 14761 kPa | 919.2 kg/m3
353.15 K, 14783 kPa | 919.5 kg/m3
354.15 K, 8320 kPa | 773.6 kg/m3
354.15 K, 8324 kPa | 773.5 kg/m3
354.15 K, 15123 kPa | 919.2 kg/m3
354.15 K, 15133 kPa | 919.1 kg/m3
354.15 K, 15157 kPa | 919.4 kg/m3
355.15 K, 8560 kPa | 773.6 kg/m3
355.15 K, 8565 kPa | 773.5 kg/m3
355.15 K, 15496 kPa | 919.1 kg/m3
355.15 K, 15507 kPa | 919 kg/m3
355.15 K, 15531 kPa | 919.3 kg/m3
356.15 K, 8801 kPa | 773.5 kg/m3
356.15 K, 8806 kPa | 773.4 kg/m3
356.15 K, 15869 kPa | 919.1 kg/m3
356.15 K, 15880 kPa | 919 kg/m3
356.15 K, 15904 kPa | 919.2 kg/m3

— the NIST ThermoML archive (doi:10.1007/s10765-010-0766-0)
